Measurements from patent US9713613B2, “Methods and compositions for the treatment of cancer and related hyperproliferative disorders” (priority 2007, dated 2017).

Biological target: T1, SCAP (Cricetulus griseus, UniProt P97260)
T1 construct: endogenous in cells; host or cells: CHO-K1 (membrane fraction extracted with 0.1% FOS-Choline 10)
T1 sequence (P97260 1-1276): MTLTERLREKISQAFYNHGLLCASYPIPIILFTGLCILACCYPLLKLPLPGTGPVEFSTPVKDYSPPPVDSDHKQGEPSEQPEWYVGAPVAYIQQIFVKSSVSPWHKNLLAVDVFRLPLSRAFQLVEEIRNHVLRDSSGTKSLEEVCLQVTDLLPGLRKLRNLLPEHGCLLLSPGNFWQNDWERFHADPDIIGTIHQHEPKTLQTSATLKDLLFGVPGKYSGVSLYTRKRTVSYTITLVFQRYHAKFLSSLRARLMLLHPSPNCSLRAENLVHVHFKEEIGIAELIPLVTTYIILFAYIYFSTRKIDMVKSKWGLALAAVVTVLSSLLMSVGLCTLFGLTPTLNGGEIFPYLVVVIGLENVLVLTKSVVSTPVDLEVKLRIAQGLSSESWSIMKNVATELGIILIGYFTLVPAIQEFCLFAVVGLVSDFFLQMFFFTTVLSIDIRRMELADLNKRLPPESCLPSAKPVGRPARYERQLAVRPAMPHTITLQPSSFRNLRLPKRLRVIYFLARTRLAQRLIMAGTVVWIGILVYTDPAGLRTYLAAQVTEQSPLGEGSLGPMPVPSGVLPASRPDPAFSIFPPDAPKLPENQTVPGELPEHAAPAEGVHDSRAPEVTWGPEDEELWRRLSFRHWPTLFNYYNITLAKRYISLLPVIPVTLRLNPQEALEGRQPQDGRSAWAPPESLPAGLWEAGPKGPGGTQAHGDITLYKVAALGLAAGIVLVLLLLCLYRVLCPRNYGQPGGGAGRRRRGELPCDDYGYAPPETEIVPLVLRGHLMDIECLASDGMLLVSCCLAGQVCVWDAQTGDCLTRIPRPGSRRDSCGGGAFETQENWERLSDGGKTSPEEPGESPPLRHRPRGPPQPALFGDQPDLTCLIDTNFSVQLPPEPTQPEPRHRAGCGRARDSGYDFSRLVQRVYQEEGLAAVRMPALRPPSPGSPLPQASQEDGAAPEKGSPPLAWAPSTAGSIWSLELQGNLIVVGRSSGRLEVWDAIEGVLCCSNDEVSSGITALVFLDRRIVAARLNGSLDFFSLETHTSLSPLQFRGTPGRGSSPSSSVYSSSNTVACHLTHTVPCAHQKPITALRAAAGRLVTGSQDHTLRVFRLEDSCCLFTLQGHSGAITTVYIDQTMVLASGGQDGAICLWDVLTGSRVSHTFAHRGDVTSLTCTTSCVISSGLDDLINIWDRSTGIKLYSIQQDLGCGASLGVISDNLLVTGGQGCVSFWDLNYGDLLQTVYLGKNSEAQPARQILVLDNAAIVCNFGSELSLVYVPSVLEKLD
Assay: Binding assay, biotinylated fatostatin on Neutravidine-agarose beads, CHO-K1 membrane extract
Set-up: species or system Chinese hamster
Conditions: not bound: SREBP-1, SREBP-2, ATF6
Source text: The selective ER localization implies that fatostatin binds to a protein in the ER; the most likely candidate is SCAP, the target of cholesterol for the control of SREBP (Radhakrishnan et al., 2004). To test this hypothesis, proteins bound to a fatostatin-polyproline linker-biotin conjugate (FIG. 20A) (Sato et al., 2007) were purified from cell lysates and analyzed by western blots with antibodies against SCAP, SREBP-1, SREBP-2, and ATF6, an unrelated ER-bound transcription factor (Ye et al., 2000). […] The binding was lost upon addition of excess fatostatin, but not excess cholesterol (FIG. 20D), raising the possibility that fatostatin may interact with SCAP in a site distinct from that of cholesterol.
Binding assay. Cell membrane fractions were prepared as described in Supplementary Methods. The membrane fraction was extracted with PBS containing 0.1% FOS-Choline 10 (Hampton Research). The extract was mixed with Neutravidine-agarose beads (10 μL) saturated with biotinylated fatostatin and incubated for 1 h. The bound proteins were washed four times with PBS containing 0.1% FOS-Choline 10, boiled in 25 μL of SDS sample buffer, and subjected to western blotting. For the competition assay, saturated amounts of cholesterol or fatostatin were added to the membrane extract before incubating with the beads.

CCCc1cc(-c2nc(-c3ccc(C)cc3)cs2)ccn1 [Compound 1, 2-propyl-4-(4-p-tolylthiazol-2-yl)pyridine]
binding to SCAP (western blot of bound proteins): bound to SCAP
